# From US20230226105A1, “METHODS AND COMPOSITIONS FOR TREATING CANCER” (ReversPAH LLC, priority 2021, published 2023)
# Key:
# [1] = Solubility of crushed and screened TTM particles in water; assay type: physicochemical; conditions: particles after 70-mesh screen
# Source text: The present inventors undertook a study to determine the size of the TTM particles after a crushing and screening process using a 70-mesh screen that would allow a maximum particle size of 210 micrometers. The size range was as follows: 10% under 13.3 μm; 50% under 44.5 μm; 90% under 122 μm.
# This is not unsurprising, as saturation will occur in fluids as a known principle and does illustrate enough fluid is required to be available to dissolve the administered TTM to create optimal bioavailability. Further, larger particles with […] surface area would be expected to remain after the smaller particles dissolve.
# [2] = Stability of TTM filled in enteric capsules exposed to stomach acid / simulated stomach acid; assay type: physicochemical; conditions: additional enteric coatings applied; after one hour
# Procedure: The present inventors have determined that while the designed disintegration properties of an enteric capsule remain stable for 2 hours and the designed enteric capsule may have a diffusion rate below 7.5% in the first two hours, the inventors research confirmed in fact stomach acid or moisture from the stomach does enter the capsule, and the enteric interior capsule walls become wet, thereby subjecting the TTM to the acid or moisture, causing rapid degradation of the enteric capsule from the chemical reaction with the moistened TTM.
# The present inventors have determined that the TTM releases H2S gas when a small amount of stomach acid or moisture enters the enteric capsule, not only causing degradation of the TTM, but also the moisture seeping through the capsule causes TTM to release H2S as part of the degradation process, which then comes in contact with the inside of the enteric capsule. This dissolves the enteric capsule from inside the capsule and leads to a catastrophic capsule failure within 15 to 30 minutes.
# This is not a preferred solution as the TTM is getting wet inside the capsule and degrading, creating the problem of not knowing how much TTM will be left to be absorbed by the patient after the tablet leaves the stomach. Such a reaction reduces the amount of drug being available to the patient, thereby reducing the drugs intended effect due to less TTM available. […]
compound,measurement,setting,value
"[SH-].[SH-].[S]=[Mo]=[S] [TTM, tetrathiomolybdate]",solubility in water,[1]; 60 mg in 300 ml water,dissolved fully over time
same,solubility in water,[1]; 160 mg in 300 ml of water,did not fully dissolve
same,TTM leakage from enteric capsule with additional enteric coatings,[2],still leaking out
